Experimental data reported in PMC8348142, “Antimicrobial Peptide Modifications against Clinically Isolated Antibiotic-Resistant Salmonella” (Molecules, 2021).
Ends that are not written are not given here.

System: clinical Salmonella isolates
Assay: MBC, drop plate method, and MBC/MIC mode of action
Format: cell-based
Settings: for MBC: drop plate on MHA from MIC plate, 37 °C, 18 h, thrice
Procedure: All 12 isolates of Salmonella used in this study were clinical isolates and anonymous left-overs from laboratory diagnoses. They were maintained in a 20% glycerol (Sigma-Aldrich) stock at −80 °C and further cultured on Mueller-Hinton agar (MHA, Oxoid, Hampshire, UK) at 37 °C for 18 h to obtain single colonies for antimicrobial assays. This study was approved by the Ethics Committee of the Faculty of Tropical Medicine (Mahidol University, Bangkok, Thailand; MUTM-EXMPT 2017-007).
The plate derived from the MIC assay was immediately tested for the MBC using a drop plate method. A volume of 10 µL of the culture from individual wells at MIC, 2MIC, and 4MIC was dropped on MHA plates. […] The experiment was thrice performed.
In order to determine whether the peptides have bacteriostatic or bactericidal activity, a ratio of MBC to MIC (MBC/MIC) was applied. The ratio >4 was indicative of bacteriostatic peptide, and ≤4 was inferred as bactericidal peptide.

FIRRIARLLRRIF-NH2 [Kn2-5R-NH2]
GM of MBC (geometric mean over 12 clinical Salmonella isolates): 4 µM | MBC (isolate 5 (Enteritidis)): 4 µM | MBC (isolate 7 (Typhimurium)): 4 µM | MBC (isolate 11 (I 1,4:i:-)): 4 µM | MBC (isolate 18 (Stanley)): 4 µM | MBC (isolate 26 (Typhimurium)): 4 µM | MBC (isolate 27 (Typhimurium)): 4 µM | MBC (isolate 55 (Typhimurium)): 4 µM | MBC (isolate 61 (Enteritidis)): 4 µM | MBC (isolate 69 (Typhimurium)): 4 µM | MBC (isolate 76 (Enteritidis)): 4 µM | MBC (isolate 78 (Enteritidis)): 4 µM | MBC (isolate 107 (Typhimurium)): 4 µM | MBC/MIC ratio (≤4 bactericidal, >4 bacteriostatic, 12 clinical Salmonella isolates): 1
